pIC50: −log10 of the molar value. Read-outs that look alike come from different tables or passages of the source. One block for each compound: values may come before it. Square brackets hold non-standard residues; d marks the D form. Peptide text beside a SMILES is read from it. Mpa = O=C(O)CCS
Legend:
[1] = molecular target: thrombospondin binding to heparin; assay: Inhibition of 125I-thrombospondin binding to immobilized heparin-BSA; parameters: species or system human; conditions: for inhibition of thrombospondin binding to heparin, in words: free peptide
Protocol: (§1) The peptides were tested as inhibitors of laminin, thrombospondin or apolipoprotein E binding to a heparin-bovine serum albumen conjugate or to a sulfatide in a solid phase assay essentially following the procedure described in Zabrenetzky et al., Cancer Res., Vol. 50, pages 5937-5942 (1990). Sulfatide (0.2 μg/well for thrombospondin binding, 0.6 μg/well for laminin binding) was immobilized in a mixture of 50 ng of phosphatidyl choline, and 30 ng of cholesterol on polyvinyl chloride microtiter plates. Heparin-BSA (0.2 μg/well) was absorbed onto polyvinyl chloride microtiter plate wells by incubation of 50 μl of Dulbecco's PBS for 2 h at 37°. The wells were emptied and filled with 50 mM tris, pH 7.8 containing 150 mM NaCl, 1 mM CaCl2, 0.025% NaN3, and 1% BSA. After 30 minutes, the wells were emptied and 30 μl of various concentrations of potential inhibitory peptides diluted in the same buffer or buffer alone and 30 μl of ^125 I-labeled laminin, thrombospondin or apolipoprotein E (0.2 μg/ml) were added to each well. After 3 hours at 4°, the wells were washed 6 times with 0.15M NaCl, cut from the plate and the bound radioactivity counted. FIGS. 1A-B and 2A-B show the level of thrombospondin binding to sulfatide and heparin-BSA, respectively, in the presence of increasing concetrations of the peptides listed. FIGS. 3 and 4A-B show the level of laminin binding to sulfatide and heparin-BSA, respectively, in the presence of increasing concentrations of the listed peptides.
Microtiter plate wells were coated with heparin-BSA. Heparin-BSA (0.2 μg/well) was adsorbed by incubation in 50 μl of Dulbecco's PBS for 2 h at 370. The wells were emptied, filled with tris-BSA, and incubated for 30 to 60 minutes. The buffer was removed, and labelled thrombospondin was added and incubated in the wells for 3 h at 40. The wells were emptied and washed 4 times with saline. The bottoms of the wells were cut from the plate and counted to quantify thrombospondin binding. Inhibition of thrombospondin binding was determined using peptides diluted in 30 μl of 50 mM tris buffer, pH 7.8, containing 110 mM NaCl, 1 mM CaCl2, 0.025% NaN3, and 1% BSA or buffer alone and 30 μl of ^125 I-labeled TSP (0.2 μg/ml).

[2] = molecular target: basic fibroblast growth factor (FGF-2) binding to heparin; assay: Inhibition of 125I-bFGF binding to heparin-BSA conjugate; conditions: retro-inverso peptides; read-out: IC50 for Inhibition of Binding
Protocol: Binding of ^125 I-bFGF to heparin was determined using an immobilized heparin-BSA conjugate as previously described (Guo, et al. (1992) Proc. Nat'l Acad. Sci. 89:3040-3044). ^125 I-bFGF, prepared as described by Neufeld, et al, (1985), J. Biol. Chem. 260:13860-13868, was added described above, and incubated for 2 hours at 25° C. Bound radioactivity was determined after washing and cutting the wells from the plate. FIGS. 40A, B and C show the inhibition of ^125 I-bFGF binding to heparin by a number of TSP peptide analogs.

[3] = system: MDA MB435 breast carcinoma cells; assay: MDA MB435 human breast carcinoma cell proliferation; assay type: cell-based; conditions: free peptide
Protocol: Human breast carcinoma cells MDA MB435 (American Type Culture Collection) were grown in RPMI 1640 medium containing 10% fetal calf serum. Proliferation was determined as described in FIG. 18 and 44A, B and C.
Human breast carcinoma cells MDA MB435 (American Type Culture Collection) were grown in RPMI 1640 medium containing 10% fetal calf serum. Proliferation was determined in the presence of 0.5% fetal calf serum and bFGF as described in FIG. 19.

bovine endothelial cells = assay: Inhibition of bovine endothelial cell proliferation (Table 7); assay type: cell-based; conditions: free peptide; read-out: IC50 Inhibitory Activity, Free Peptide
Protocol: Similar structure-function and epitope mapping studies were carried out with regard to inhibition of bovine endothelial cell proliferation. […] This may be due either to a lower tendency of the conjugates to stick to the microtiter wells or a greater tendency to disrupt binding of the cells to the substratum in the wells.
Endothelial cell proliferation was measured using the CELL TITER 96™ assay (Promega, Madison, Wis.). 5×10^3 cells were plated into each well of a 96-well culture plate in 0.5 or 5% FCS-containing medium together with the indicated concentrations of growth effectors. After 72 h, 15 μl of dye solution was added to each well, and the plates were incubated for an additional 4 h. Solubilization solution was added, and absorbance at 570 nm was determined after 24 h as described by the manufacturer.

A2058 melanoma cells [4] = assay: 125I-laminin binding to A2058 melanoma cells; assay type: cell-based, human; conditions: excess heparin
Protocol: (§2) Melanoma cells (1×10^5 in 0.2 ml) were incubated with 0.2 μg/ml labeled laminin alone or in the presence of 200 micrograms per ml of peptides from SEQ ID NO:1, SEQ ID NO:2, or SEQ ID NO:3, type-I repeats from thrombospondin (FIG. 5A). Melanoma cells were also incubated with labelled laminin or thrombospondin alone or in the presence of 10 μg/ml of peptides from the first (184, SEQ ID NO:1), second (185, SEQ ID NO:2 and 246, SEQ ID NO:19), or third type I repeat of thrombospondin (186, SEQ ID NO:3) or 1 μg/ml heparin (FIG. 5B). The cells were centrifuged through oil to separate the free laminin from the bound laminin followed by quantifying the radioactivity in the cell pellet by a gamma counter. The results are presented in FIGS. 5A and B, as a percent of control binding determined in the absence of peptide and is the mean of triplicate determinations±the standard deviation.
(§3) Melanoma cells (3×10^5 cells in 0.2 ml) were incubated with 0.2 μg/ml of labelled I^125 -thrombospondin alone or in the presence of increasing concentrations of heparin or a peptide having the sequence according to SEQ ID NO:1 or a combination of the two inhibitors. […]
(§4) A2058 melanoma cells were harvested as described above and suspended in Dulbecco's PBS containing 1 mg/ml BSA. […] The supernatant fluid was aspirated, and the bottom of the tube was cut and counted.

A2058 melanoma cells [5] = assay: 125I-thrombospondin binding to A2058 melanoma cells; assay type: cell-based, human
Protocol: as §2, §3, §4

A2058 melanoma cells [6] = assay: A2058 melanoma cell adhesion to peptides adsorbed on plastic; assay type: cell-based, human
Protocol: Human melanoma cell line A2058 (Todaro et al., Proc. Natl. Acad. Sci USA 77, 5258-5262 (1980)) was maintained by monolayer culture at 37° with 5% carbon dioxide in RPMI 1640 medium containing 10% fetal bovine serum. For attachment assays, cells were removed using trypsin, passaged at 10^4 cells/cm^2 and harvested between days 5 and 7. Attachment and spreading on thrombospondin-coated plastic was determined as previously described (Roberts et al., J. Cell Biol. 104, 131-139 (1987)). Inhibition was determined by adding the inhibitor diluted in 0.4 ml of bicarbonate-free RPMI 1640 medium, containing 1 mg/ml of bovine serum albumin (fatty acid free, Sigma), pH 7.3, to wells of a 24-well dish containing bacteriological polystyrene was coated with the indicated peptides at 200 μg/ml. Melanoma cells were harvested by incubation with phosphate buffered saline containing 2.5 mM EDTA for 20 minutes at 37°. The cells were centrifuged and viability (routinely >99%) was assessed by trypan blue exclusion. The cells were resuspended in medium and allowed to recover in suspension for 1 h. Melanoma cells (2×10^5 ) suspended in 100 μl of medium (approx 10^3 /mm^2) were added to each well and allowed to attach for 60 minutes at 37° C. in a humidified atmosphere.

[7] = molecular target: thrombospondin binding to sulfatide; assay: Inhibition of 125I-thrombospondin binding to sulfatide; parameters: species or system human; conditions: Table 1, free peptide
Protocol: as §1

[8] = molecular target: laminin binding to sulfatide; assay: Inhibition of 125I-laminin binding to sulfatide; parameters: species or system mouse; conditions: Table 2, free peptide
Protocol: as §1

[9] = molecular target: apolipoprotein E binding to heparin; assay: Inhibition of 125I-apolipoprotein E binding to heparin-BSA; conditions: Table 2, free peptide; read-out: IC50 Apo E Binding to Heparin
Protocol: as §1

[10] = molecular target: laminin binding to heparin; assay: Inhibition of 125I-laminin binding to heparin-BSA; parameters: species or system mouse; conditions: Table 2, free peptide
Protocol: as §1

Solubility = assay type: physicochemical
[11] = retro-inverso peptides, free, read-out: IC50 Inhibitory Activity, Free Peptide
[12] = Table 1, free peptide, read-out: IC50 Heparin Binding, inhibition of 125I-thrombospondin binding

Compound: CC(=O)N[C@H](CS)C(=O)N[C@H](CO)C(=O)N[C@H](CO)C(=O)N[C@H](C)C(=O)N1CCC[C@@H]1C(=O)N[C@H](CO)C(=O)N[C@H](C)C(=O)N[C@H](Cc1c[nH]cn1)C(=O)N[C@H](CO)C(=O)N[C@H](C)C(=O)NCC(=O)NCC(=O)N[C@H](CC(=O)O)C(=O)N[C@H](CCC(N)=O)C(=O)N[C@H](CCCCN)C(=O)N[C@H](C)C(=O)N[C@H](CCCNC(=N)N)C(=O)N[C@H](CCCCN)C(N)=O [Peptide 513, ri-amKRAKQDGGASHASPASSCac] (Ac-[dC][dS][dS][dA][dP][dS][dA][dH][dS][dA]GG[dD][dQ][dK][dA][dR][dK]-NH2)
pIC50 [1, 11]: 5.21 | pIC50 [2]: 4.74 | pIC50 (bovine endothelial cells): 4.74

Compound: heparin [reference compound]
laminin binding resistant to inhibition (A2058 melanoma cells [4]): approximately 50% | inhibition of thrombospondin binding to A2058 melanoma cells by heparin (A2058 melanoma cells [5]; heparin): approximately 90%

Compound: apolipoprotein E: recombinant apolipoprotein E, heparin-binding protein
inhibition of A2058 adhesion to the peptides (A2058 melanoma cells [6]; disks coated with 200 μg/ml peptide 185): inhibited adhesion

More lines, main results first:

pIC50 [1, 11]: 6.89 | pIC50 [2]: < 4.70
Compound: C[C@@H](NC(=O)CCS)C(=O)N[C@H](C)C(=O)N[C@H](Cc1c[nH]c2ccccc12)C(=O)N[C@H](Cc1c[nH]cn1)C(=O)N[C@H](CO)C(=O)N[C@H](Cc1c[nH]c2ccccc12)C(=O)NCC(=O)NCC(=O)N[C@H](C)C(=O)N[C@H](CCC(N)=O)C(=O)N[C@H](CCCCN)C(=O)N[C@H](C)C(=O)N[C@H](CCCNC(=N)N)C(=O)N[C@H](CCCCN)C(N)=O [Peptide 483, ri-amKRAKQAGGWSHWAAtp] ([Mpa][dA][dA][dW][dH][dS][dW]GG[dA][dQ][dK][dA][dR][dK]-NH2)
inhibition of MDA MB435 proliferation, in words [3]: active | pIC50 (bovine endothelial cells): 5.40

pIC50 [1, 12]: 5.22 | inhibition of thrombospondin binding to heparin, in words [1]: active | pIC50 [7]: 4.85 | pIC50 [8]: 5.41 | pIC50 [9]: 4.08 | pIC50 [10]: 5.52
Compound: CC(C)[C@H](NC(=O)[C@H](CO)NC(=O)[C@@H](N)CS)C(=O)N[C@H](C(=O)N[C@@H](CS)C(=O)NCC(=O)O)[C@@H](C)O [Peptide 187, CSVTCG] (H-CSVTCG-OH)
promotion of melanoma cell adhesion, in words (A2058 melanoma cells [6]; peptide adsorbed on plastic): promoted significant cell adhesion above background

pIC50 [1, 12]: 4.33 | pIC50 [7]: 4.85 | pIC50 [8]: 4.38 | pIC50 [9]: 5.38 | pIC50 [10]: 4.44
Compound: C[C@@H](O)[C@H](NC(=O)[C@H](CO)NC(=O)[C@H](CS)NC(=O)[C@H](CO)NC(=O)[C@@H](NC(=O)[C@H](Cc1c[nH]c2ccccc12)NC(=O)[C@H](CCC(=O)O)NC(=O)[C@H](CO)NC(=O)[C@H](Cc1c[nH]c2ccccc12)NC(=O)[C@@H]1CCCN1C(=O)[C@@H](N)CO)[C@@H](C)O)C(=O)N[C@@H](CO)C(=O)O [Peptide 184, SPWSEWTSCSTS] (H-SPWSEWTSCSTS-OH)
inhibition of thrombospondin binding to A2058 melanoma cells, in words (A2058 melanoma cells [5]; dose dependent): inhibited

inhibition of thrombospondin binding to heparin, in words [1]: good activity
Compound: CC(=O)N[C@@H](CCCCN)C(=O)N[C@@H](CCCNC(=N)N)C(=O)N[C@@H](C)C(=O)N[C@@H](CCCCN)C(=O)N[C@@H](C)C(=O)N[C@@H](C)C(=O)NCC(=O)NCC(=O)N[C@@H](Cc1c[nH]c2ccccc12)C(=O)N[C@@H](CO)C(=O)N[C@@H](Cc1c[nH]cn1)C(=O)N[C@@H](Cc1c[nH]c2ccccc12)C(=O)N[C@@H](C)C(=O)N[C@@H](CO)C(=O)N[C@@H](CS)C(N)=O [acKRAKAAGGWSHWASCam] (Ac-KRAKAAGGWSHWASC-NH2)
solubility characteristics (Solubility): good activity and solubility characteristics

Source: patent US5770563A, “Heparin- and sulfatide binding peptides from the type I repeats of human thrombospondin and conjugates thereof” (The United States of America as represented by the …, priority 1995, dated 1998)
